Measured values from US5380732A, “Pesticidal compounds” (priority 1986, dated 1995).

Key:
Assay type in all cases: in vivo
Plutella xylostella = assay: fourth instar Plutella larvae sprayed and added to sprayed chinese cabbage leaf (Example C); details: 2 days, 25° C.
Experimental: (§1) The compounds of the invention were tested by dissolving them in acetone (5%) and then diluting in water/`Synperonic` (94.5%/0.5%) to give a water emulsion. ("Synperonic" is a R.T.M. of I.C.I. plc and is nonylphenol ethoxylate in aqueous solution to give 27%; available from B.D.H., Poole, Dorset, England). The solution was then used to treat the following insects.
7 Fourth instar Plutella larvae were sprayea with the solution containing the compound and added to a chinese cabbage leaf which had been similarly sprayed and left to dry. Mortality was assessed after 2 days at 25° C.

Musca domestica = assay: spray onto 20 female Musca, mortality after 2 days (Example C); details: 25° C.
Experimental: as §1
20 female Musca were contained in a cardboard cylinder with gauze over either end. Solution containing the compound was sprayed onto the insects so enclosed and mortality assessed after 2 days at 25° C.

Tribolium castaneum = assay: adults on treated wheat, mortality after 6 days, Tribolium (Example C); details: at 1000 ppm, 25° C.
Experimental: as §1
20 adult Sitophilus and Tribolium were added to 10 g wheat which had been previously treated with 2 ml of the solution containing the compound. Mortality was assessed after 6 days at 25° C.

Tetranychus urticae = assay: leaf discs of infested french bean sprayed (Example C); details: 2 days, 25° C.
Experimental: as §1
Leaf discs of infested french bean were sprayed with the solution containing the compound. Mortality was assessed after 2 days at 25° C.

[1] = test system: Diabrotica undecimpunctata; assay: 2nd instar larvae and their food sprayed on filter paper (Example C); details: at 1000 ppm; 2nd instar larvae, 2 days
Experimental: as §1
2nd instar larvae and their food were sprayed on filter paper with the solution containing the compound. Activity was assessed at 2 days.

Spodoptera littoralis = assay: sprayed leaves infested with newly hatched Spodoptera larvae (Example C); details: at 200 ppm, +pip but, 3 days
Experimental: as §1
Uninfested leaves were sprayed with the test solution containing the compound (+pip but) and left to dry. These were then infested with 10 newly hatched larvae. Mortality was assessed after 3 days.

Blatella germanica = assay: activity against Blatella germanica with piperonyl butoxide; details: at up to 10 μg per insect (+piperonyl butoxide)
S. granarius = assay: track-spray of acetone-water solution, S. granarius (Example A); details: acetone-water (5:95)
Experimental: (§2) The compound of Example 1 was administered in acetone-water (5:95) by track-spray to a range of insect and acarine species, giving the following results.

Myzus persicae = assay: adult Myzus on chinese cabbage leaf disc sprayed (Example C); details: at 200 ppm; 2 days, 25° C.
Experimental: as §1
10 adult Myzus were placed on a leaf disc of chinese cabbage. 24 hours later the disc was sprayed with the solution containing the compound. Mortality was assessed after 2 days at 25° C.

M. domestica = assay: track-spray of acetone-water solution, M. domestica (Example A); details: acetone-water (5:95)
Experimental: as §2

C. quinquefasciatus = assay: track-spray of acetone-water solution, C. quinquefasciatus (Example A); details: acetone-water (5:95)
Experimental: as §2

T. castaneum = assay: track-spray of acetone-water solution, T. castaneum (Example A); details: acetone-water (5:95)
Experimental: as §2

A. aegypti (larvae) = assay: track-spray of acetone-water solution, A. aegypti larvae (Example A); details: acetone-water (5:95)
Experimental: as §2

Structure (SMILES) | active (mortality) (Plutella xylostella; at 200 ppm) | active (mortality) (Musca domestica; at 200 ppm) | active (mortality) (Tribolium castaneum) | active (mortality) (Tetranychus urticae; at 1000 ppm) | active [1] | active (mortality) (Plutella xylostella; at 40 ppm) | active (mortality) (Spodoptera littoralis) | active (mortality) (Musca domestica; at 1000 ppm) | active (Blatella germanica) | active (mortality) (Tetranychus urticae; at 200 ppm) | LD50 (S. granarius) [ppm] | active (mortality) (Myzus persicae) | active (mortality) (Plutella xylostella; at 1000 ppm) | LD50 (M. domestica) | LD50 (C. quinquefasciatus) [ppm] | LD50 (T. castaneum) [ppm] | LD50 (A. aegypti (larvae)) [ppm]
CC(C)CNC(=O)C=CC=CCCCCCCCOc1ccc(Cl)cn1 [Example 17] | active | active | active | active |  |  |  |  |  |  |  |  |  |  |  |  | 
CC(/C=C/CCCCCCCOc1ncc(C(F)(F)F)cc1C(F)(F)F)=C(/F)C(=O)NCC(C)C [Example 38, (2Z,4E)N-Isobutyl 2-fluoro-3-methyl-12-(3,5-bistrifluoromethyl-2-pyridyloxy)dodeca-2,4-dienamide] |  |  |  |  | active | active | active | active | active | active |  |  |  |  |  |  | 
CC(C)CNC(=O)C=CC=CCCCCCCCOc1cccc(Cl)n1 [Example 1, N-Isobutyl 12-(6'-chloro-2'-pyridyloxy)dodeca-2,4-dienamide] |  | active |  | active |  |  |  |  |  |  | > 1000 | active | active | about 200 ppm | > 1000 | > 1000 | > 1000
